How the values were obtained:
soybeans = experiment: Soybeans in a vegetation experiment in sandy loam (Example 19); format: in vivo, soybean (Gieso variety); details: for Growth height: 4 weeks; for response vs control in vivo at 3000 g/ha / response vs control in vivo at 6000 g/ha: control 100
Protocol: Soybean plants of the Gieso variety were grown in a neutral sandy loam. Fertilization took place at the time of sowing, with 0.5 g N as ammonium nitrate and 1.0 g P2 O5 as secondary potassium phosphate. […]
After 4 weeks, the treated plants were much shorter than the control, and looked more compact as a result of the different angle of the leaves. The prior art compound used for comparison purposes was 2,3,5-triiodobenzoic acid (T; U.S. Pat. No. 2,978,838).

Arachis hypogaea = experiment: Growth-regulating action, postemergence, greenhouse (Example 35, Table 1); format: in vivo; details: for growth height relative: control 100
Text: (§1) The vessels used for the experiments were plastic pots having a volume of 1,130 cm^3 (Table A) or paraffined paper cups having a volume of 170 cm^3 (Table B). The pots and cups were filled with a sandy loam. The seeds of the test plants-separated by species-were sown shallow. Preemergence treatment (soil treatment) was effected immediately after sowing and before germination of the seeds. Seeds lying on the surface came into contact with the active ingredients. Postemergence treatment (leaf treatment) took place at an average growth height of the plants (depending on the rate of growth) of from 6 to 10 cm. The substances were suspended, emulsified or dissolved in water as diluent and applied by means of fine nozzles. The vessels were kept in the greenhouse in a temperature range of 12° C. to 25° C., and were regularly sprinkler irrigated for the duration of the experiment. The observation period was 6 to 8 weeks.
(§2) Further experiments were carried out in the greenhouse under the condition described in Example 11. […] As the plants which were examined liked the warmth (Eupghorbia geniculate, Arachis hypogaea, Cynodon dactylon), they were kept at from 20°-30° C. Cynodon dactylon from seed was cut once and the young growth treated postemergence.

Cynodon dactylon = experiment: as above; format: in vivo; details: for growth height relative: control 100
Text: as §1, §2

oats = experiment: Growth height of oats, greenhouse (Example 10); format: in vivo, oats (Flamingskrone); details: leaf; for Plant height relative: control 100
Text: In the greenhouse, the four cereals wheat ("Opal" variety), rye ("Petkuser"), barley ("Villa") and oats ("Flamingskrone") were sown in plastic dishes 11.5 cm in diameter in a sandy loam adequately supplied with nutrients. The active ingredients were applied at various rates to the soil and to the leaves. When applied to the soil, the active ingredient were sprayed onto the surface of the soil on the day of sowing; in the case of leaf treatment, the leaves were sprayed in the usual manner at a growth height of the plants of 10 cm. During the 18 day growth period, the treated plants grew much more slowly than the untreated control, a fact later confirmed by measurements of the stem length. Measurements were taken of 100 plants from each series.
The prior art agent used for comparison purposes was N-2-chloroethyl-N,N,N-trimethylammonium chloride (CCC; German Printed Application DAS No. 1,294,734).

[1] = Glycine max, 672 h, 3.0 kg/ha, read-out: Growth height relative
[2] = Glycine max, 672 h, 6.0 kg/ha, read-out: Growth height relative
[3] = Glycine max, 672 h, read-out: Growth height relative

In the case of `Brc1ccc(N2N=NC3C4CC(C5N=NC45)C32)cc1` (stereo not drawn) [drawing 397], the Growth height (soybeans; 3.0 kg/ha, soil) is reported as 14.0 cm, the Growth height (soybeans; 6.0 kg/ha, soil) is reported as 14.0 cm and the response vs control in vivo at 3000 g/ha (soybeans; [1]) is reported as 60.9%. It also gave a response vs control in vivo at 6000 g/ha (soybeans; [2]) of 60.9%.
With `c1cc2sncc2cc1N1C2C3CC(C4N=NC34)C21` (stereo not drawn) the Growth height (Arachis hypogaea; 0.5 kg/ha) was 13 cm, the growth height relative (Arachis hypogaea; 0.5 kg/ha) was 81 and the Growth height (Arachis hypogaea; 1.0 kg/ha) was 12 cm. It also gave a growth height relative (Arachis hypogaea; 1.0 kg/ha) of 75, a Growth height (Arachis hypogaea; 2.0 kg/ha) of 9 cm and a growth height relative (Arachis hypogaea; 2.0 kg/ha) of 56. The Growth height (Cynodon dactylon; 0.5 kg/ha) was 4 cm, the growth height relative (Cynodon dactylon; 0.5 kg/ha) was 36 and the Growth height (Cynodon dactylon; 1.0 kg/ha) was 4 cm. For the same compound, the growth height relative (Cynodon dactylon; 1.0 kg/ha) was 36, the Growth height (Cynodon dactylon; 2.0 kg/ha) was 4 cm and the growth height relative (Cynodon dactylon; 2.0 kg/ha) was 36.
Compound `Clc1ccc(N2N=NC3C4CC(C5N=NC45)C32)cc1` (stereo not drawn) [drawing 358] has a Plant height (oats; 0.125 kg/ha) of 23.5 cm, a Plant height relative (oats; 0.125 kg/ha) of 83.9 and a Plant height (oats; 0.5 kg/ha) of 22.5 cm. The Plant height relative (oats; 0.5 kg/ha) was 80.4, the Plant height (oats; 1.0 kg/ha) was 21.0 cm and the Plant height relative (oats; 1.0 kg/ha) was 75.0. The Plant height (oats; 2.0 kg/ha) was 19.0 cm, the Plant height relative (oats; 2.0 kg/ha) was 67.9 and the Plant height (oats; 4.0 kg/ha) was 17.0 cm. For the same compound, the Plant height relative (oats; 4.0 kg/ha) was 60.7.
For `O=C(O)c1cc(I)cc(I)c1I` [T, 2,3,5-triiodobenzoic acid, reference compound], the Growth height (soybeans; 0.125 kg/ha) was 23.5 cm, the Growth height (soybeans; 0.375 kg/ha) was 25.0 cm and the Growth height (soybeans; 0.750 kg/ha) was 23.0 cm. It also gave a response vs control in vivo at 125 g/ha (soybeans; [3]) of 102%, a response vs control in vivo at 375 g/ha (soybeans; [3]) of 109% and a response vs control in vivo at 750 g/ha (soybeans; [3]) of 100%.
`Brc1cccc(N2N=NC3C4CC(C5N=NC45)C32)c1` (stereo not drawn) [drawing 399] was tested, and the Growth height (soybeans; 3.0 kg/ha, soil) was 17.0 cm, the Growth height (soybeans; 6.0 kg/ha, soil) was 16.0 cm and the response vs control in vivo at 3000 g/ha (soybeans; [1]) was 73.9%. For the same compound, the response vs control in vivo at 6000 g/ha (soybeans; [2]) was 69.6%.
`Brc1ccc(N2N=NC3C4CC(C5N=NC45)C32)cc1` (stereo not drawn) [drawing 359] showed a Plant height (oats; 0.125 kg/ha) of 25.5 cm, a Plant height relative (oats; 0.125 kg/ha) of 91.1 and a Plant height (oats; 0.5 kg/ha) of 25.0 cm. The Plant height relative (oats; 0.5 kg/ha) was 89.3, the Plant height (oats; 1.0 kg/ha) was 22.5 cm and the Plant height relative (oats; 1.0 kg/ha) was 80.4. It also gave a Plant height (oats; 2.0 kg/ha) of 22.5 cm, a Plant height relative (oats; 2.0 kg/ha) of 80.4 and a Plant height (oats; 4.0 kg/ha) of 22.0 cm. The Plant height relative (oats; 4.0 kg/ha) was 78.6.
In the case of `Clc1ccc(N2N=NC3C4CC(C5N=NC45)C32)cc1` (stereo not drawn) [drawing 393], the Growth height (soybeans; 3.0 kg/ha, soil) is reported as 15.0 cm, the Growth height (soybeans; 6.0 kg/ha, soil) is reported as 14.0 cm and the response vs control in vivo at 3000 g/ha (soybeans; [1]) is reported as 65.2%. The response vs control in vivo at 6000 g/ha (soybeans; [2]) was 60.9%.
Work on `Brc1ccccc1N1N=NC2C3CC(C4N=NC34)C21` (stereo not drawn) [drawing 398] yielded a Growth height (soybeans; 3.0 kg/ha, soil) of 21.0 cm, a Growth height (soybeans; 6.0 kg/ha, soil) of 17.0 cm and a response vs control in vivo at 3000 g/ha (soybeans; [1]) of 91.3%. It also gave a response vs control in vivo at 6000 g/ha (soybeans; [2]) of 73.9%.
